Read-outs that look alike come from different tables or passages of the source.
How the values were obtained:
SF-295 = assay: NCI SRB growth inhibition (single dose 10 µM / five-dose); format: cell-based, human; conditions: Homo sapiens; for inhibition at 10 µM: SF-295 (CNS cancer), read-out: GI%
Method: (§1) Screening of cytotoxic activity against a panel of sixty human tumor cell lines The selected compounds by NCI were evaluated for their anticancer activity in a two- stage process. […] Then, the output from the single dose screen is reported as a mean graph. […] Assay protocol. […] For a typical screening experiment, cells are inoculated into 96 well microtiter plates in 100 µL at plating densities ranging from 5000 to 40,000 cells/well depending on the doubling time of individual cell lines. […] After 24 h, two plates of each cell line are fixed in situ with TCA, to represent a measurement of the cell population for each cell line at the time of drug addition (Tz). The experimental drugs are solubilized in dimethyl sulfoxide at 400-fold the desired final maximum test concentration and stored frozen prior to use. At the time of drug addition, an aliquot of frozen concentrate is thawed and diluted to twice the desired final maximum test concentration with complete medium containing 50 µg/mL gentamicin. Additional four, 10-fold or ½ log serial dilutions are made to provide a total of five drug concentrations plus control. Aliquots of 100 mL of these different drug dilutions are added to the appropriate microtiter wells already containing […] of medium, resulting in the required final drug concentrations. […] For adherent cells, the assay is terminated by the addition of cold TCA. […] The supernatant is discarded, and the plates are washed five times with tap water and air dried. Sulforhodamine B (SRB) solution ([…]) at 0.4% (w/v) in 1% acetic acid is added to each well, and plates are incubated for 10 min at room temperature. After staining, unbound dye is removed by washing five times with 1% acetic acid and the plates are air dried. […] Using the seven absorbance measurements [time zero, (Tz), control growth, (C), and test growth in the presence of drug at the five concentration levels (Ti)], the percentage growth is calculated at each of the drug concentrations levels. Percentage growth inhibition is calculated as: [(Ti Tz)/(C–Tz)] x 100 for concentrations for which Ti>/=Tz and [(Ti-Tz)/Tz] x 100 for concentrations for which Ti < Tz. Three dose response parameters are calculated for each experimental agent. […] The drug concentration resulting in total growth inhibition (TGI) is calculated from Ti = Tz. […] Values are calculated for each of these three parameters if the level of activity is reached; however, if the effect is not reached or is exceeded, the value for that parameter is expressed as greater or less than the maximum or minimum concentration tested.

SK-MEL-5 = assay: as above; format: cell-based, human; conditions: Homo sapiens; for inhibition at 10 µM: SK-MEL-5 (Melanoma), read-out: GI%
Method: as §1

T-47D = assay: as above; format: cell-based, human; conditions: Homo sapiens, T47D; for inhibition at 10 µM: T-47D (Breast cancer), read-out: GI%
Method: as §1

UO-31 = assay: as above; format: cell-based, human; conditions: Homo sapiens; for inhibition at 10 µM: UO-31 (Renal cancer), read-out: GI%
Method: as §1

MDA-MB-468 = assay: as above; format: cell-based, human; conditions: Homo sapiens; for inhibition at 10 µM: MDA-MB-468 (Breast cancer), read-out: GI%
Method: as §1

LOX IMVI = assay: as above; format: cell-based, human; conditions: Homo sapiens; for inhibition at 10 µM: LOX IMVI (Melanoma), read-out: GI%
Method: as §1

HL-60(TB) = assay: as above; format: cell-based, human; conditions: Homo sapiens; for inhibition at 10 µM: HL-60(TB) (Leukemia), read-out: GI%
Method: as §1

NCI-H322M = assay: as above; format: cell-based, human; conditions: Homo sapiens; for inhibition at 10 µM: NCI-H322M (Non-small cell lung cancer), read-out: GI%
Method: as §1

NCI-H460 = assay: as above; format: cell-based, human; conditions: Homo sapiens; for inhibition at 10 µM: NCI-H460 (Non-small cell lung cancer), read-out: GI%
Method: as §1

DU-145 = assay: as above; format: cell-based, human; conditions: Homo sapiens; for inhibition at 10 µM: DU-145 (Prostate cancer), read-out: GI%
Method: as §1

[1] = test system: NCI panel of 60 tumor cell lines; assay: NCI SRB growth inhibition, whole panel mean (single dose 10 µM / five-dose); format: cell-based, human; conditions: Homo sapiens
Method: as §1

VEGFR-2 = molecular target: T1, VEGFR-2 (Homo sapiens, UniProt P35968); assay: VEGFR-2 kinase assay kit (BPS), Kinase-Glo Max luminescence; format: biochemical; conditions: VEGFR-2, single dose 10 µM, duplicate, mean ± SD
T1 construct: purchased BPS Biosciences 40325
Method: 2. Biochemical kinase assay procedure
The inhibitory activity against different kinases was determined using kinase kits […]
from BPS Biosciences and kinase-Glo Max luminescence kinase assay kit (Promega).
The assay was carried out according to the protocol provided by the manufacturer. A stock solution of the synthesized derivatives in 100% DMSO was prepared. Subsequently, the compounds were diluted to 10% DMSO.
A master mixture was prepared according to the number of wells. For VEGFR-2 and FGFR-1 biochemical assays each well include 6 μl of 5x Kinase Buffer 1 + 1 μl of 500 μM ATP + 1 μl of PTK Substrate (Poly-Glu,Tyr 4:1) (10 mg/ml) + 17 μl of distilled water. For BRAF assay each well include 6 μl of 5x Kinase Buffer 1 + 1 μl of ATP (500 μM) + 10 μl of 5X Raf substrate + 8 μl of distilled water. 1x Kinase buffer 1 was prepared by mixing 600 μl of 5x Kinase Buffer 1 with 2400 μl water to give 3 mL. Kinases were thawed on ice and were diluted with 1x Kinase Buffer 1.
To start the biochemical reaction, 25 µL of the master mixture was added to each well in 96 well plate. 5 µL of 10% DMSO was added to positive control wells and blank wells. 5 µL of diluted inhibitor was added to each well labelled with the test inhibitor so that the final concentration of DMSO is 1% in all reactions. Then 20 µL of (1 ng / μl) in case of VEGFR-2 and FGFR-1 or (2.5 ng/μl) in case of BRAF in 1x kinase buffer was added to positive control wells and wells labelled with the inhibitor, while 20 µL 1x kinase buffer 1 was added to the […]
The plate was incubated at 30 °C for 45 min. Subsequently, 50 μl of Kinase-Glo Max luminescence reagent was added to each well and the plate was covered with aluminum foil and incubated at room temperature 15 min. Finally, the luminescence was recorded using multimode microplate reader. Kinase activity assays were performed in duplicate at each […]
The luminescence data were analyzed as follows. The difference between luminescence intensities in the absence of kinase (Lut) and in the presence of kinase (Luc) was defined as 100 % activity (Lut – Luc). Using luminescence signal (Lu) in the presence of the compound, % activity was calculated as: % activity = {(Lut - Lu)/(Lut - Luc)}×100%. The […]
concentration of the test compounds required to reduce the kinase activity by 50% was determined from dose-response curves and recorded as their IC50. […]

[2] = mean over NCI 60 cell lines, > 100% = lethal effect, read-out: mean growth inhibition % (GI%)
[3] = mean over NCI panel of 60 tumor cell lines, read-out: Mean growth inhibition %

T1 sequence (P35968 20-1356): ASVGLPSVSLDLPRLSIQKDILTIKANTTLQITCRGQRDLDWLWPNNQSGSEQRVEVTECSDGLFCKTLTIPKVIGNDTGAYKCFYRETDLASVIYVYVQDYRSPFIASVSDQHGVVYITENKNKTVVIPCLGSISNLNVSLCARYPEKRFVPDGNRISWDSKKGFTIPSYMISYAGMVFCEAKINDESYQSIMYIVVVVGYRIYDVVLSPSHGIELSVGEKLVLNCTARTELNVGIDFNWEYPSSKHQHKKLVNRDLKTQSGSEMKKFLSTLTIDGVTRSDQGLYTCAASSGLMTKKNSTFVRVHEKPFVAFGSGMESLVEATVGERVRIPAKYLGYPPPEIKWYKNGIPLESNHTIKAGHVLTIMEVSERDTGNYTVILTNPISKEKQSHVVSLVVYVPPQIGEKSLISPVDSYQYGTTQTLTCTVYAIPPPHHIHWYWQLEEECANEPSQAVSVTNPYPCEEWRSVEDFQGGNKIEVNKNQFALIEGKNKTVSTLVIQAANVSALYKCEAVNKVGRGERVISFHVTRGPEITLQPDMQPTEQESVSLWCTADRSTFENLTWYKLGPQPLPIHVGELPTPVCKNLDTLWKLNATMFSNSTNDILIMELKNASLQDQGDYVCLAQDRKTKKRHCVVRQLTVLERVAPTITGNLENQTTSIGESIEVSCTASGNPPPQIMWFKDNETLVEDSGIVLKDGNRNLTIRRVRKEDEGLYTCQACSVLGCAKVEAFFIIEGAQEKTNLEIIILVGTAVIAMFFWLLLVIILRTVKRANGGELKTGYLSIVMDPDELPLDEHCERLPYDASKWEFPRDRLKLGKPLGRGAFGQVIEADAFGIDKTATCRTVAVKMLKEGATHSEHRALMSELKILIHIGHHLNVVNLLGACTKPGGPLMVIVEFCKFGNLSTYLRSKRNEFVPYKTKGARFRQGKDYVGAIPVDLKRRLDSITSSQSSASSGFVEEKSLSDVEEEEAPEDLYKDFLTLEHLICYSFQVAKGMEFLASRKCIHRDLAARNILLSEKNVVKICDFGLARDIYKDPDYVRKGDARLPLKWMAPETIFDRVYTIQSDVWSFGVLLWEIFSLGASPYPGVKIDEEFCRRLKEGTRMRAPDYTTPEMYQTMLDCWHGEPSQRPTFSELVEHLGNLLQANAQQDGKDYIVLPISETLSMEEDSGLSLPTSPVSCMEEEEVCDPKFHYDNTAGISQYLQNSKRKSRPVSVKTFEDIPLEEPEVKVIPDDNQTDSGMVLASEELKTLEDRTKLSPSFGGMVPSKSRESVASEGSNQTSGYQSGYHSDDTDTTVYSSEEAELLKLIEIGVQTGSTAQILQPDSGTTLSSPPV

Row | Compound | inhibition at 10 µM (SF-295) | inhibition at 10 µM (SK-MEL-5) | inhibition at 10 µM (T-47D) | inhibition at 10 µM (UO-31) | inhibition at 10 µM (MDA-MB-468) | inhibition at 10 µM (LOX IMVI) | inhibition at 10 µM (HL-60(TB)) | inhibition at 10 µM (NCI-H322M) | inhibition at 10 µM (NCI-H460) | inhibition at 10 µM (DU-145) | inhibition at 10 µM [1, 2] | inhibition at 10 µM [1, 3] | inhibition at 10 µM (VEGFR-2) | further results
1 | COc1ccc(-c2nc3cc(C(=O)NN=Cc4ccccc4O)ccc3[nH]2)cc1 [8h, N'-(2-Hydroxybenzylidene)-2-(4-methoxyphenyl)-1H-benzo[d]imidazole-5-carbohydrazide] | > 100% | > 100% | > 100% | > 100% | > 100% | 98.7% | 82.9% | 96.7% | > 100% | > 100% | > 100% | > 100% | 62.9 ± 3.89% | GI50 (SF-295; SF-295, CNS cancer, five-dose): 1260 nM; GI50 (SK-MEL-5; SK-MEL-5, Melanoma, five-dose): 1730 nM; GI50 (T-47D; T-47D, Breast cancer, five-dose): 2600 nM; GI50 (UO-31; UO-31, Renal cancer, five-dose): 1700 nM; GI50 (MDA-MB-468; MDA-MB-468, Breast cancer, five-dose): 2980 nM; GI50 (LOX IMVI; LOX IMVI, Melanoma, five-dose): 2230 nM; GI50 (HL-60(TB); HL-60(TB), Leukemia, five-dose): 2090 nM; GI50 (NCI-H322M; NCI-H322M, Non-small cell lung cancer, five-dose): 4230 nM; GI50 (NCI-H460; NCI-H460, Non-small cell lung cancer, five-dose): 1870 nM; GI50 (DU-145; DU-145, Prostate cancer, five-dose): 2330 nM; GI50 ([1]; mean over NCI cancer cell lines, five-dose): 2980 nM
2 | COc1ccc(-c2nc3cc(C(=O)NN=Cc4ccc(OC)c(O)c4)ccc3[nH]2)cc1 [8l, N'-(3-Hydroxy-4-methoxybenzylidene)-2-(4-methoxyphenyl)-1H-benzo[d]imidazole-5-carbohydrazide] | 51% | 55.3% | 52.5% | 9.13% | 44.4% | 37.9% | 52.2% | 24% | 15% | 27.9% | 34.4% | 34.4% | 50.6 ± 5.29% | –
3 | COc1cccc(C=NNC(=O)c2ccc3[nH]c(-c4ccccc4)nc3c2)c1 [8c, N'-(3-Methoxybenzylidene)-2-phenyl-1H-benzo[d]imidazole-5-carbohydrazide] | 18.5% | 39% | 69.1% | 30.6% | 22.7% | < 5% | 38.1% | 6.09% | 13.1% | 18.4% | 20.7% | 20.7% | 18.5 ± 0.95% | –
4 | COc1ccc(-c2nc3cc(C(=O)NN=Cc4cc(OC)c(OC)c(OC)c4)ccc3[nH]2)cc1 [8n, 2-(4-Methoxyphenyl)-N'-(3,4,5-trimethoxybenzylidene)-1H-benzo[d]imidazole-5-carbohydrazide] | 29.8% | 42.6% | 38.1% | 21.8% | < 5% | 7.53% | < 5% | < 5% | < 5% | < 5% | 13.6% | 13.6% | 20.8 ± 1.78% | –
5 | O=C(NN=Cc1cccc(O)c1)c1ccc2[nH]c(-c3ccc(Cl)cc3)nc2c1 [8p, 2-(4-Chlorophenyl)-N'-(3-hydroxybenzylidene)-1H-benzo[d]imidazole-5-carbohydrazide] | 11.8% | 69.5% | 79.8% | 14.9% | 65.8% | 14.7% | < 5% | < 5% | 56.6% | < 5% | 25.4% | 25.4% | 22.3 ± 0.86% | –
6 | COc1cc(C=NNC(=O)c2ccc3[nH]c(-c4ccccc4)nc3c2)cc(OC)c1OC [8g, 2-Phenyl-N'-(3,4,5-trimethoxybenzylidene)-1H-benzo[d]imidazole-5-carbohydrazide] | 54.1% | 89.3% | – | 45.5% | 39.2% | 56.5% | 17.1% | 15.7% | 56.3% | 17.1% | 36% | 36% | 47.9 ± 3.53% | –
7 | COc1ccc(C=NNC(=O)c2ccc3[nH]c(-c4ccc(Cl)cc4)nc3c2)cc1O [8s, 2-(4-Chlorophenyl)-N'-(3-hydroxy-4-methoxybenzylidene)-1H-benzo[d]imidazole-5-carbohydrazide] | 85% | 53.3% | – | 8.7% | 88.7% | 44.9% | 45.3% | 18.1% | 63.8% | 16.2% | 49.5% | 49.5% | 26.7 ± 1.83% | –
8 | COc1ccc(OC)c(C=NNC(=O)c2ccc3[nH]c(-c4ccccc4)nc3c2)c1 [8f, N'-(2,5-Dimethoxybenzylidene)-2-phenyl-1H-benzo[d]imidazole-5-carbohydrazide] | 31.4% | 67.8% | – | 54% | 24.7% | 62.5% | 36.3% | 12.3% | 15.8% | 18.4% | 33.7% | 33.7% | 58.3 ± 2.98% | –
